{
  "source": "patent US4459293A",
  "about": "“Method of modulating the complement system by administering bis-[β-D-glucopyranosyl-1-thio (or sulfinyl or sulfonyl)]-aryline sulfate derivatives and the cation salts thereof” (American Cyanamid Company, priority 1983, dated 1984)",
  "key": {"[1]": {"target": "T1, activated human C1 (Homo sapiens, UniProt P09871)", "T1 construct": "fluid-phase C2 destruction in presence of C4", "T1 sequence (P09871 16-688)": "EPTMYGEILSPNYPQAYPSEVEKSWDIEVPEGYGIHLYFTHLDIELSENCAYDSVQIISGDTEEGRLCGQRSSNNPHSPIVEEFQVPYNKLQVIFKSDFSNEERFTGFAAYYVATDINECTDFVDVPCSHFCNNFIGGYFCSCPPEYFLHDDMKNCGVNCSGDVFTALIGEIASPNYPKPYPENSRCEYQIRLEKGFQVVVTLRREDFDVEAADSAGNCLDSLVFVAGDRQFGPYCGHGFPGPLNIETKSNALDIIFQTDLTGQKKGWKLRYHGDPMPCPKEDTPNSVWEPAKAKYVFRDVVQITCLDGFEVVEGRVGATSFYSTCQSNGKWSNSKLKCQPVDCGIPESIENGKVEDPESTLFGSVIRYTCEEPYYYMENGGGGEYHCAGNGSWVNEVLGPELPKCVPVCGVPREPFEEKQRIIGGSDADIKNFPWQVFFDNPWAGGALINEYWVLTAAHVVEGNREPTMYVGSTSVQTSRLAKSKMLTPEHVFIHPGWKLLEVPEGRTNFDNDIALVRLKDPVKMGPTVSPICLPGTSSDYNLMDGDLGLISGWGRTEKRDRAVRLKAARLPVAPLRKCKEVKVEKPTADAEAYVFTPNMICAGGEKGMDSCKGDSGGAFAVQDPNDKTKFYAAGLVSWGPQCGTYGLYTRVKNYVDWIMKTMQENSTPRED", "T1 sequence (P00736 18-705 partner)": "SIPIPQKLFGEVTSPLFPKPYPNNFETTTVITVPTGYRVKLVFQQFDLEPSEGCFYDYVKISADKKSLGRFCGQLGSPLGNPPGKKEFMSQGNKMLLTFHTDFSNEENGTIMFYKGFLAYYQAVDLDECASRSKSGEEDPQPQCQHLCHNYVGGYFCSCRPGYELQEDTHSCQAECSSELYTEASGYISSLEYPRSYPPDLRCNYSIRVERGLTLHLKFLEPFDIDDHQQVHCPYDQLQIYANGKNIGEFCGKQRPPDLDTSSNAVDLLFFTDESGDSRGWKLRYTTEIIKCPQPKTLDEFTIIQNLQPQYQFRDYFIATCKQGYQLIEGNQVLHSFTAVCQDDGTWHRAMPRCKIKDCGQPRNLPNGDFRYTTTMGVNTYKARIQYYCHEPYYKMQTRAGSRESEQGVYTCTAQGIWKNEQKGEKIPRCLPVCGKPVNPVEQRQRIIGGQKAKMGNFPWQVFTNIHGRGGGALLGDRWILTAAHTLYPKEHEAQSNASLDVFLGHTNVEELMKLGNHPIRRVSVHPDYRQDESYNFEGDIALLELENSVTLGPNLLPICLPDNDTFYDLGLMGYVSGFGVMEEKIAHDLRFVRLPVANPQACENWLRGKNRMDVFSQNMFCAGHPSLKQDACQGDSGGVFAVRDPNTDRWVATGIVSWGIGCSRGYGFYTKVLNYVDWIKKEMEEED", "T1 sequence (P02745 23-245 partner)": "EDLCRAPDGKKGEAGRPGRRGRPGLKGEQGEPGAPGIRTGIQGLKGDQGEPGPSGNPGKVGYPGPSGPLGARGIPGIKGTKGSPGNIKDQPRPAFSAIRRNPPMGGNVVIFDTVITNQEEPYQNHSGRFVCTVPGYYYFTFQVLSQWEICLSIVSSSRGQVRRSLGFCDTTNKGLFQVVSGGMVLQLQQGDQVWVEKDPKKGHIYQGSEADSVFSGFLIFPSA", "T1 sequence (P02746 28-253 partner)": "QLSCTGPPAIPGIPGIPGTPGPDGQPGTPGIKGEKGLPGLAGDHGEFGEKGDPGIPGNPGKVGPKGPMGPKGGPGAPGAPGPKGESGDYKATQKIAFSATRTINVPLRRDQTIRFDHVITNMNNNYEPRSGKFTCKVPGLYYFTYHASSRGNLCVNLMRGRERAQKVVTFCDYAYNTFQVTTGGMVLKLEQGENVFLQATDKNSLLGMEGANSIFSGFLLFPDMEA", "T1 sequence (P02747 29-245 partner)": "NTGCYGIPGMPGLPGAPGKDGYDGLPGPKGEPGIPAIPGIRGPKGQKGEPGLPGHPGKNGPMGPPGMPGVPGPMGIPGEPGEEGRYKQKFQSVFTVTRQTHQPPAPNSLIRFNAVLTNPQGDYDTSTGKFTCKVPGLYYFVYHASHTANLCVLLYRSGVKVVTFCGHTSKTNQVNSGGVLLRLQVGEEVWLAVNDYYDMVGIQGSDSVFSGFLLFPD", "assay": "Test Code 026 (C1 inhibitor): protection of fluid phase human C2 from activated human C1 in the presence of C4, serial dilution assay", "format": "biochemical", "conditions": "activity in wells, twofold serial dilutions; higher well number indicates higher activity", "experimental": "(§1) An active inhibitor protects C2 from C1 and C4; (ii) Test Code 035 (C3-C9 inhibitor)--This test determines the ability of the late components of human complement (C3-C9) to lyse EAC 142 in the presence of appropriate dilutions of the test compound. An active inhibitor protects EAC 142 from lysis by human C3-C9; and (iii) Cap 50 Test--Here, appropriate amounts of the test compound are added to a pool of guinea pig serum in vitro, after which the undiluted serum capillary tube assay of U.S. Pat. No. 3,876,376 is run. The concentration of compound inhibiting 50% is reported.\n(§2) **Activity in wells, a serial dilution assay; higher well number indicate\n(§3) higher activitiy. The serial dilutions are twofold."}, "[2]": {"tested_on": "late components of human complement (C3-C9)", "assay": "Test Code 035 (C3-C9 inhibitor): protection of EAC 142 from lysis by late components of human complement", "format": "biochemical", "conditions": "activity in wells, twofold serial dilutions; higher well number indicates higher activity", "experimental": "as §1, §2, §3"}},
  "note": "Structures can show the parent of a compound that is named as a salt.",
  "data": [
    {"smiles": "O=C(O)[C@H]1O[C@@H](Sc2cccc(S[C@@H]3O[C@H](C(=O)O)[C@@H](OS(=O)(=O)O)[C@H](OS(=O)(=O)O)[C@H]3OS(=O)(=O)O)c2)[C@H](OS(=O)(=O)O)[C@@H](OS(=O)(=O)O)[C@@H]1OS(=O)(=O)O", "note": "[1,3-Bis[β-D-glucopyranosiduronic acid-1-thio]-phenylene, hexakis(H-sulfate), octasodium salt]", "values": [
      {"measurement": "Cl 026 Wells", "setting": "[1]", "result": 5, "unit": "Wells"}
    ]},
    {"smiles": "CC(=O)N[C@@H]1[C@@H](OS(=O)(=O)O)[C@H](OS(=O)(=O)O)[C@@H](COS(=O)(=O)O)O[C@H]1Sc1cccc(S[C@@H]2O[C@H](COS(=O)(=O)O)[C@@H](OS(=O)(=O)O)[C@H](OS(=O)(=O)O)[C@H]2NC(C)=O)c1", "note": "[1,3-Bis-[β-D-(2-acetylamino)-glucopyranosyl-1-thio]-phenylene, hexakis(H-sulfate), hexasodium salt]", "values": [
      {"measurement": "Cl 026 Wells", "setting": "[1]", "result": 5, "unit": "Wells"},
      {"measurement": "C-Late 035 Wells", "setting": "[2]", "result": 1, "unit": "Wells"}
    ]},
    {"smiles": "O=S(=O)(O)OC[C@H]1O[C@@H](Sc2ccc(Oc3ccc(S[C@@H]4O[C@H](COS(=O)(=O)O)[C@@H](OS(=O)(=O)O)[C@H](OS(=O)(=O)O)[C@H]4OS(=O)(=O)O)cc3)cc2)[C@H](OS(=O)(=O)O)[C@@H](OS(=O)(=O)O)[C@@H]1OS(=O)(=O)O", "note": "[Oxydi-p-phenylene bis-[1-thio-β-D-glucopyranoside], octakis(H-sulfate), octasodium salt]", "values": [
      {"measurement": "Cl 026 Wells", "setting": "[1]", "result": 4, "unit": "Wells"}
    ]}
  ]
}
